A word on the MIC: it is the lowest concentration found to suppress growth. Lower therefore signals a more susceptible organism.

The structures appear in SMILES notation. ≈ marks a conversion by molar mass, not a printed value.

Format in all cases: cell-based
Assay [1] has as its system Escherichia coli JR66/W677. As to the kind of experiment: MIC by serial dilution method on nutrient agar. The note with it: for MIC: nutrient agar, 37° C. On the procedure:
(§1) The minimum inhibitory concentrations (MIC) of 1-AHB-6'-MKM and 1-AHB-6'-EKM against various micro-organisms were determined by the serial dilution method using a nutrient agar medium at 37° C.

The subject of assay [2] is Escherichia coli K-12 ML1410. Put plainly: MIC by serial dilution method on nutrient agar. The conditions noted are these: K12ML1410, 37° C. On the procedure: as §1
In assay [3] the test system is Escherichia coli K-12 ML1629. As to the kind of experiment: MIC by serial dilution method on nutrient agar. The note with it: for MIC: K12ML1629, nutrient agar, 37° C. The protocol: as §1
The test system of assay [4] is Escherichia coli K-12 ML1630. As to the kind of experiment: MIC by serial dilution method on nutrient agar. The conditions noted are these: for MIC: K12ML1630, nutrient agar, 37° C. The protocol: as §1
Another assay deals with Escherichia coli K-12 R5. As to the kind of experiment: MIC by serial dilution method on nutrient agar. The note with it: K12R5. On the procedure:
as §1

The next assay deals with Escherichia coli K-12. As to the kind of experiment: MIC by serial dilution method on nutrient agar. The conditions noted are these: K12, 37° C. On the procedure: as §1
For assay [5], the system named is Escherichia coli LA290 R55. As to the kind of experiment: MIC by serial dilution method on nutrient agar. The conditions noted are these: LA290R55. The protocol:
as §1

Assay [6] concerns Escherichia coli LA290 R56. Put plainly: MIC by serial dilution method on nutrient agar. The conditions noted are these: LA290R56. The protocol:
as §1

In assay [7] the test system is Escherichia coli LA290 R64. As to the kind of experiment: MIC by serial dilution method on nutrient agar. The note with it: LA290R64. The protocol:
as §1

A further assay concerns Escherichia coli W677. As to the kind of experiment: MIC by serial dilution method on nutrient agar. The conditions noted are these: 37° C. On the procedure:
as §1

For assay [8], the system named is Klebsiella pneumoniae 22#3038. Put plainly: MIC by serial dilution method on nutrient agar. The conditions noted are these: for MIC: nutrient agar, 37° C. On the procedure: as §1
Assay [9] deals with Klebsiella pneumoniae PCI 602. Put plainly: MIC by serial dilution method on nutrient agar. The conditions noted are these: PCI602, 37° C. On the procedure: as §1
In assay [10] the test system is Mycobacterium smegmatis ATCC607. Put plainly: MIC by serial dilution method on nutrient agar. The conditions noted are these: Mycolicibacterium smegmatis, 37° C. The protocol:
as §1

For assay [11], the system named is Pseudomonas aeruginosa 99. Put plainly: MIC by serial dilution method on nutrient agar. The conditions noted are these: 37° C. The protocol: as §1
The subject of assay [12] is Pseudomonas aeruginosa A3. Put plainly: MIC by serial dilution method on nutrient agar. The conditions noted are these: 37° C. On the procedure: as §1
The subject of assay [13] is Pseudomonas aeruginosa GN315. Put plainly: MIC by serial dilution method on nutrient agar. The conditions noted are these: for MIC: nutrient agar, 37° C. The protocol:
as §1

Assay [14] relates to Pseudomonas aeruginosa No. 12. As to the kind of experiment: MIC by serial dilution method on nutrient agar. The note with it: 37° C. The protocol: as §1
In assay [15] the test system is Pseudomonas aeruginosa TI-13. Put plainly: MIC by serial dilution method on nutrient agar. The conditions noted are these: for MIC: TI13, nutrient agar, 37° C. The protocol:
as §1

Assay [16] relates to Staphylococcus aureus FDA209P. As to the kind of experiment: MIC by serial dilution method on nutrient agar. The conditions noted are these: 37° C. On the procedure: as §1
Assay [17] relates to some strains of gram-negative bacteria carrying R factor Staphylococcus aureus and Pseudomonas aeruginosa. Put plainly: resistance of strains isolated from patients.

As to `CCNC[C@H]1O[C@H](O[C@H]2[C@H](O)[C@@H](O[C@H]3O[C@H](CO)[C@@H](O)[C@H](N)[C@H]3O)[C@H](NC(=O)[C@@H](O)CCN)C[C@@H]2N)[C@H](O)[C@@H](O)[C@@H]1O` [1-AHB-6'-EKM, 1-N-(L-4-amino-2-hydroxybutyryl)-6'-N-ethylkanamycin], the MIC in assay [1] was found to be 25 µg/mL (≈ 40.7 µM); in assay [2], 3.12 µg/mL (≈ 5.08 µM); in [3], 3.12 µg/mL (≈ 5.08 µM); in assay [4] it was 6.25 µg/mL (≈ 10.2 µM); against Escherichia coli K-12 R5 it was 1.56 µg/mL (≈ 2.54 µM); in the assay on Escherichia coli K-12, 1.56 µg/mL (≈ 2.54 µM). In addition, the MIC in assay [5] was 3.12 µg/mL (≈ 5.08 µM); in [6], 1.56 µg/mL (≈ 2.54 µM); in assay [7], 1.56 µg/mL (≈ 2.54 µM); in the assay on Escherichia coli W677, 1.56 µg/mL (≈ 2.54 µM); in [8], 25 µg/mL (≈ 40.7 µM); in [9] it was 1.56 µg/mL (≈ 2.54 µM). The MIC is 3.12 µg/mL (≈ 5.08 µM) in [10]; 100 µg/mL (≈ 163 µM) in [11]; 25 µg/mL (≈ 40.7 µM) in assay [12]; 100 µg/mL (≈ 163 µM) in assay [13]; 25 µg/mL (≈ 40.7 µM) in assay [14]; 50 µg/mL (≈ 81.5 µM) in assay [15]. The same molecule came in with an MIC in [16] of 1.56 µg/mL (≈ 2.54 µM).

For the molecule `CNC[C@H]1O[C@H](O[C@H]2[C@H](O)[C@@H](O[C@H]3O[C@H](CO)[C@@H](O)[C@H](N)[C@H]3O)[C@H](NC(=O)[C@@H](O)CCN)C[C@@H]2N)[C@H](O)[C@@H](O)[C@@H]1O` [1-AHB-6'-MKM, 1-N-(L-4-amino-2-hydroxybutyryl)-6'-N-methylkanamycin], the MIC in [1] is 6.25 µg/mL (≈ 10.4 µM); in assay [2], 1.56 µg/mL (≈ 2.6 µM); in assay [3] it was 0.78 µg/mL (≈ 1.3 µM); in assay [4], 1.56 µg/mL (≈ 2.6 µM); against Escherichia coli K-12 R5, 0.78 µg/mL (≈ 1.3 µM); with Escherichia coli K-12 it was 0.39 µg/mL (≈ 0.65 µM). The MIC in assay [5] was found to be 1.56 µg/mL (≈ 2.6 µM); in assay [6], 0.78 µg/mL (≈ 1.3 µM); in assay [7] it was 0.78 µg/mL (≈ 1.3 µM); against Escherichia coli W677, 1.56 µg/mL (≈ 2.6 µM); in [8], 6.25 µg/mL (≈ 10.4 µM); in assay [9], 0.78 µg/mL (≈ 1.3 µM). Further, the MIC in [10] is 0.39 µg/mL (≈ 0.65 µM); in assay [11], 12.5 µg/mL (≈ 20.8 µM); in assay [12], 6.25 µg/mL (≈ 10.4 µM); in [13], 50 µg/mL (≈ 83.4 µM); in assay [14], 3.12 µg/mL (≈ 5.2 µM); in [15] it was 12.5 µg/mL (≈ 20.8 µM). This molecule also yielded an MIC in [16] of 0.78 µg/mL (≈ 1.3 µM).

On to `CNC[C@H]1O[C@H](O[C@H]2[C@H](O)[C@@H](O[C@H]3O[C@H](CO)[C@@H](O)[C@H](N)[C@H]3O)[C@H](N)C[C@@H]2N)[C@H](O)[C@@H](O)[C@@H]1O` [6'-N-methylkanamycin, reference compound], for which the “inhibition of kanamycin-resistant strain” value in assay [1], in assay [3], in [4], in assay [8], in [13] and in assay [15] was “does not inhibit” throughout.

As to `NC[C@H]1O[C@H](O[C@H]2[C@H](O)[C@@H](O[C@H]3O[C@H](CO)[C@@H](O)[C@H](N)[C@H]3O)[C@H](N)C[C@@H]2N)[C@H](O)[C@@H](O)[C@@H]1O` [kanamycin], the resistance of strains entry in assay [17] is given as “resistant”.
